Values joined by “and” are separate entries in the source; they are usually repeats but may differ in a detail not shown here. Identical values can stand only once. Inconclusive results and toxic doses are left out.
Tested on: P388 leukemia ip, CD2F1 mice, survival T/C
Assay: NCI In Vivo Anticancer Drug Screen. Data for tumor model P388 Leukemia (intraperitoneal) in CD2F1 (CDF1) mice
Settings: endpoint: median survival time, higher = longer survival
Summary of the method: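 Mice carrying the transplanted tumor received test compound or vehicle. Survival was recorded in each group, and the value is the treated-group measurement divided by that of the vehicle-treated control group.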

[1] = dose: 100.0 mg/kg/injection, schedule: Q01DX005 (ip), vehicle: saline
[2] = dose: 50.0 mg/kg/injection, schedule: Q01DX005 (ip), vehicle: saline with Tween-80
[3] = dose: 100.0 mg/kg/injection, schedule: Q01DX005 (ip), vehicle: saline with Tween-80
[4] = dose: 200.0 mg/kg/injection, schedule: Q01DX005 (ip), vehicle: saline with Tween-80
[5] = dose: 12.5 mg/kg/injection, schedule: Q04DX002 (ip), vehicle: distilled water + Tween-80
[6] = dose: 25.0 mg/kg/injection, schedule: Q04DX002 (ip), vehicle: distilled water + Tween-80
[7] = dose: 50.0 mg/kg/injection, schedule: Q04DX002 (ip), vehicle: distilled water + Tween-80
[8] = dose: 100.0 mg/kg/injection, schedule: Q04DX002 (ip), vehicle: distilled water + Tween-80
[9] = dose: 200.0 mg/kg/injection, schedule: Q04DX002 (ip), vehicle: distilled water + Tween-80
[10] = dose: 12.5 mg/kg/injection, schedule: Q01DX005 (ip), vehicle: saline with Tween-80
[11] = dose: 25.0 mg/kg/injection, schedule: Q01DX005 (ip), vehicle: saline with Tween-80
[12] = dose: 12.5 mg/kg/injection, schedule: Q01DX001 (ip), vehicle: saline
[13] = dose: 25.0 mg/kg/injection, schedule: Q01DX001 (ip), vehicle: saline
[14] = dose: 50.0 mg/kg/injection, schedule: Q01DX001 (ip), vehicle: saline
[15] = dose: 50.0 mg/kg/injection, schedule: Q01DX005 (ip), vehicle: Klucel (hydroxypropylcellulose) (HPC)
[16] = dose: 100.0 mg/kg/injection, schedule: Q01DX005 (ip), vehicle: Klucel (hydroxypropylcellulose) (HPC)
[17] = dose: 200.0 mg/kg/injection, schedule: Q01DX005 (ip), vehicle: Klucel (hydroxypropylcellulose) (HPC)

In the case of `Cc1c(N)nc(C(CC(N)=O)NCC(N)C(N)=O)nc1C(=O)NC(C(=O)NC(C)C(O)C(C)C(=O)NC(C(=O)NCCc1nc(-c2nc(C(=O)NCCCNCCCCN)cs2)cs1)C(C)O)C(OC1OC(CO)C(O)C(O)C1OC1OC(CO)C(O)C(OC(N)=O)C1O)c1cnc[nH]1` (configuration not stated), the T/C (dose: 12.5 mg/kg/injection, schedule: Q01DX005 (ip), vehicle: saline) is reported as 117 % of control and the T/C [1] is reported as 104 % of control.

In the case of `Nc1nc(N)nc(NCCSS(=O)(=O)O)n1`, the T/C (dose: 50.0 mg/kg/injection, schedule: Q01DX009 (ip), vehicle: Klucel (hydroxypropylcellulose) (HPC)) is reported as 94 % of control, the T/C (dose: 100.0 mg/kg/injection, schedule: Q01DX009 (ip), vehicle: Klucel (hydroxypropylcellulose) (HPC)) is reported as 94 % of control and the T/C (dose: 200.0 mg/kg/injection, schedule: Q01DX009 (ip), vehicle: Klucel (hydroxypropylcellulose) (HPC)) is reported as 91 % of control.

With `CC(CC(C)C1CO1)C(=O)C(C)S(=O)(=O)c1ccccc1` (configuration not stated) (tested in a mixture with another compound) the T/C [2] was 104 % of control, the T/C [3] was 88 % of control and the T/C [4] was 102 % of control.

`Cc1c2ccnc(C(N)=O)c2c(C)c2c1[nH]c1ccccc12` was tested, and the T/C (dose: 6.25 mg/kg/injection, schedule: Q04DX002 (ip), vehicle: distilled water + Tween-80) was 99 % of control, the T/C (dose: 6.25 mg/kg/injection, schedule: Q04DX003 (ip), vehicle: distilled water + Tween-80) was 111 % of control and the T/C [5] was 99 % of control. The T/C (dose: 12.5 mg/kg/injection, schedule: Q04DX003 (ip), vehicle: distilled water + Tween-80) was 112 % of control, the T/C [6] was 99 % of control and the T/C (dose: 25.0 mg/kg/injection, schedule: Q04DX003 (ip), vehicle: distilled water + Tween-80) was 112 % of control. The T/C [7] was 104 % of control, the T/C (dose: 50.0 mg/kg/injection, schedule: Q04DX003 (ip), vehicle: distilled water + Tween-80) was 104 % of control and the T/C [8] was 104 % of control and 111 % of control. The T/C (dose: 100.0 mg/kg/injection, schedule: Q04DX003 (ip), vehicle: distilled water + Tween-80) was 111 % of control, the T/C [9] was 118 % of control and the T/C (dose: 200.0 mg/kg/injection, schedule: Q04DX003 (ip), vehicle: distilled water + Tween-80) was 115 % of control. For the same compound, the T/C (dose: 800.0 mg/kg/injection, schedule: Q04DX002 (ip), vehicle: distilled water + Tween-80) was 155 % of control.

With `COc1cc(NCCCCCNC(C)C)c2ncccc2c1` the T/C [10] was 103 % of control, the T/C [11] was 113 % of control and the T/C [2] was 100 % of control.

With `NC1CC2c3ccccc3C1c1ccccc12` (configuration not stated) the T/C [10] was 100 % of control, the T/C [11] was 100 % of control and the T/C [2] was 100 % of control.

In the case of `Cc1ccc(Br)c(C(O)(C(F)(F)F)C(F)(F)F)c1`, the T/C (dose: 100.0 mg/kg/injection, schedule: Q01DX001 (ip), vehicle: other) is reported as 103 % of control and 104 % of control, the T/C (dose: 200.0 mg/kg/injection, schedule: Q01DX001 (ip), vehicle: other) is reported as 101 % of control and the T/C (dose: 400.0 mg/kg/injection, schedule: Q01DX001 (ip), vehicle: other) is reported as 111 % of control and 108 % of control.

`COC(=O)C1(CC(=O)/C=C/c2ccccc2)NC(=S)NC(=O)C1C#N` (configuration not stated) was tested, and the T/C (dose: 30.0 mg/kg/injection, schedule: Q01DX005 (ip), vehicle: Klucel (hydroxypropylcellulose) (HPC)) was 102 % of control, the T/C (dose: 60.0 mg/kg/injection, schedule: Q01DX005 (ip), vehicle: Klucel (hydroxypropylcellulose) (HPC)) was 91 % of control and 92 % of control and the T/C (dose: 240.0 mg/kg/injection, schedule: Q01DX005 (ip), vehicle: Klucel (hydroxypropylcellulose) (HPC)) was 92 % of control.

With `O=C1OC(=O)C2CC3OC3CC12` (configuration not stated) the T/C [12] was 104 % of control, the T/C [13] was 109 % of control and the T/C [14] was 100 % of control.

`CCCCCCCCCCC(=O)CCCCCC` was tested, and the T/C (dose: 50.0 mg/kg/injection, schedule: Q01DX009 (ip), vehicle: other) was 90 % of control, the T/C (dose: 100.0 mg/kg/injection, schedule: Q01DX009 (ip), vehicle: other) was 100 % of control and the T/C (dose: 200.0 mg/kg/injection, schedule: Q01DX009 (ip), vehicle: other) was 109 % of control.

For `O=C1OC(c2ccccc2)=N/C1=C/c1c(Cl)n(-c2ccccc2)c2ccccc12`, the T/C (dose: 100.0 mg/kg/injection, schedule: Q01DX001 (ip), vehicle: Klucel (hydroxypropylcellulose) (HPC)) was 96 % of control, the T/C (dose: 200.0 mg/kg/injection, schedule: Q01DX001 (ip), vehicle: Klucel (hydroxypropylcellulose) (HPC)) was 94 % of control and the T/C (dose: 400.0 mg/kg/injection, schedule: Q01DX001 (ip), vehicle: Klucel (hydroxypropylcellulose) (HPC)) was 93 % of control.

With `NCC(S)c1ccc(Cl)cc1` (configuration not stated) the T/C [12] was 100 % of control, the T/C [13] was 100 % of control and the T/C [14] was 100 % of control.

`O=C(CC(=O)c1ccccc1)Nc1ccc(-c2nc3ccccc3c(=O)[nH]2)cc1` was tested, and the T/C (dose: 50.0 mg/kg/injection, schedule: Q01DX009 (ip), vehicle: saline + alcohol) was 97 % of control, the T/C (dose: 100.0 mg/kg/injection, schedule: Q01DX009 (ip), vehicle: saline + alcohol) was 92 % of control and the T/C (dose: 200.0 mg/kg/injection, schedule: Q01DX009 (ip), vehicle: saline + alcohol) was 94 % of control.

`Cc1cc(N=Nc2ccc(-c3ccc(N=Nc4ccc(O)c(C(=O)O)c4)cc3)cc2)c(N)c(N=Nc2cc(C(=O)O)ccc2Cl)c1N` was tested, and the T/C (dose: 50.0 mg/kg/injection, schedule: Q01DX005 (ip), vehicle: saline) was 104 % of control, the T/C [1] was 104 % of control and the T/C (dose: 200.0 mg/kg/injection, schedule: Q01DX005 (ip), vehicle: saline) was 90 % of control.

For `Cc1ccc(S(=O)(=O)C(C#N)CCC(=O)c2ccc(Cl)cc2)cc1` (configuration not stated), the T/C [15] was 107 % of control, the T/C [16] was 106 % of control and the T/C [17] was 105 % of control.

In the case of `C[CH2][Sn]=[O].c1cc[c]([Ge]([c]2ccccc2)[c]2ccccc2)cc1`, the T/C (dose: 25.0 mg/kg/injection, schedule: Q01DX009 (ip), vehicle: saline) is reported as 96 % of control, the T/C (dose: 50.0 mg/kg/injection, schedule: Q01DX009 (ip), vehicle: saline) is reported as 88 % of control and 93 % of control and 96 % of control and the T/C (dose: 100.0 mg/kg/injection, schedule: Q01DX009 (ip), vehicle: saline) is reported as 101 % of control and 88 % of control. The T/C (dose: 200.0 mg/kg/injection, schedule: Q01DX009 (ip), vehicle: saline) was 121 % of control and 88 % of control and 96 % of control.

With `CCOP(=O)(O)SP(=O)(O)OCC.CCOP(=O)(O)SP(=O)(O)OCC.[Mn]` the T/C (dose: 50.0 mg/kg/injection, schedule: Q04DX002 (ip), vehicle: saline) was 117 % of control and the T/C (dose: 100.0 mg/kg/injection, schedule: Q04DX002 (ip), vehicle: saline) was 113 % of control and 117 % of control.

`O=C1Oc2ccccc2C(=O)C1=Ic1ccccc1` was tested, and the T/C [15] was 88 % of control, the T/C [16] was 94 % of control and the T/C [17] was 95 % of control.

`C/C(=C\N1CCN(c2ccc(Cl)cc2)C(C)C1)C(=O)c1ccccc1` (configuration not stated) was tested, and the T/C (dose: 100.0 mg/kg/injection, schedule: Q04DX003 (ip), vehicle: saline with Tween-80) was 94 % of control and the T/C (dose: 200.0 mg/kg/injection, schedule: Q04DX003 (ip), vehicle: saline with Tween-80) was 88 % of control.

In the case of `COC1C(Cl)CC(/C(=C\C2CCCCC2)C(=O)O)CC1Cl` (configuration not stated), the T/C [2] is reported as 100 % of control, the T/C [3] is reported as 103 % of control and the T/C [4] is reported as 101 % of control.

`C[C@H]1COC(c2ccccn2)=N1` was tested, and the T/C (dose: 60.0 mg/kg/injection, schedule: Q01DX005 (ip), vehicle: saline) was 105 % of control, the T/C (dose: 120.0 mg/kg/injection, schedule: Q01DX005 (ip), vehicle: saline) was 106 % of control and the T/C (dose: 240.0 mg/kg/injection, schedule: Q01DX005 (ip), vehicle: saline) was 96 % of control.

`Cn1c(=O)[nH]c(Sc2ccccc2)c(C=O)c1=O` was tested, and the T/C (dose: 100.0 mg/kg/injection, schedule: Q01DX001 (ip), vehicle: saline with Tween-80) was 104 % of control and the T/C (dose: 200.0 mg/kg/injection, schedule: Q01DX001 (ip), vehicle: saline with Tween-80) was 101 % of control.

With `c1ccc2c(Nc3nccs3)c3ccccc3nc2c1` the T/C [5] was 96 % of control, the T/C [6] was 96 % of control and the T/C [7] was 88 % of control. The T/C [8] was 94 % of control, the T/C [9] was 98 % of control and the T/C (dose: 400.0 mg/kg/injection, schedule: Q04DX002 (ip), vehicle: distilled water + Tween-80) was 103 % of control.

With `O=C(c1ccccc1)c1nc(-c2ccccc2)oc1-c1ccccc1` the T/C (dose: 100.0 mg/kg/injection, schedule: Q01DX001 (ip), vehicle: saline) was 100 % of control, the T/C (dose: 200.0 mg/kg/injection, schedule: Q01DX001 (ip), vehicle: saline) was 108 % of control and the T/C (dose: 400.0 mg/kg/injection, schedule: Q01DX001 (ip), vehicle: saline) was 99 % of control.

Source: PubChem BioAssay AID330 (DTP/NCI, 2004)
